#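 A five-concentration, 48-hour dose response in 96-well plates underlies each endpoint, interpolated linearly between surrounding concentrations. At the GI50, growth is halved.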 Active and inactive are the calls of the source. Rule as the data show it: active = GI50 up to about 1.1 µM and inactive = higher.
# Legend:
# Experiment in all cases: NCI anticancer screen, dose series, 48 h
# OVCAR-5 = tested on: OVCAR-5
# RPMI-8226 = tested on: RPMI-8226
# SK-MEL-2 = tested on: SK-MEL-2
# XF498 = tested on: XF498
# OVCAR-8 = tested on: OVCAR-8
# HT-29 = tested on: HT-29
# SNB-78 = tested on: SNB-78
# K562 = tested on: K562
# NCI-H226 = tested on: NCI-H226
# DMS-273 = tested on: DMS-273
# SF-268 = tested on: SF-268
# MOLT-4 = tested on: MOLT-4
# SF-295 = tested on: SF-295
# CAKI-1 = tested on: CAKI-1
# HCT-116 = tested on: HCT-116
# TK-10 = tested on: TK-10
# A498 = tested on: A498
# HOP-62 = tested on: HOP-62
# UO-31 = tested on: UO-31
# A549 = tested on: A549
# SNB-75 = tested on: SNB-75
# SK-MEL-5 = tested on: SK-MEL-5
# UACC-62 = tested on: UACC-62
# KM-20L2 = tested on: KM-20L2
# ACHN = tested on: ACHN
# CCRF-CEM = tested on: CCRF-CEM
# UACC-257 = tested on: UACC-257
# NCI-H460 = tested on: NCI-H460
# SW-620 = tested on: SW-620
# OVCAR-3 = tested on: OVCAR-3
# SF-539 = tested on: SF-539
# SK-OV-3 = tested on: SK-OV-3
# U-251 = tested on: U-251
# COLO 205 = tested on: COLO 205
# DLD-1 = tested on: DLD-1
# HCT-15 = tested on: HCT-15
# M14 = tested on: M14
# NCI-H23 = tested on: NCI-H23
# EKVX = tested on: EKVX
# DMS-114 = tested on: DMS-114
# LXFL 529 = tested on: LXFL 529
# SN12C = tested on: SN12C
# OVCAR-4 = tested on: OVCAR-4
# HOP-18 = tested on: HOP-18
# 786-0 = tested on: 786-0
# SNB-19 = tested on: SNB-19
# M19-MEL = tested on: M19-MEL
# KM12 = tested on: KM12
# Malme-3M = tested on: Malme-3M
# RXF 393 = tested on: RXF 393
# HCC 2998 = tested on: HCC 2998
# HL-60 = tested on: HL-60
# IGROV-1 = tested on: IGROV-1
# NCI-H522 = tested on: NCI-H522
# HOP-92 = tested on: HOP-92
# LOX IMVI = tested on: LOX IMVI
# SK-MEL-28 = tested on: SK-MEL-28
smiles,measurement,setting,value
Cc1ccccc1C(=O)Oc1ccc(Oc2ccccc2)cc1,GI50,OVCAR-5,> 100 µM (inactive)
same,GI50,RPMI-8226,> 100 µM (inactive)
same,GI50,SK-MEL-2,> 100 µM (inactive)
same,GI50,XF498,> 100 µM (inactive)
same,GI50,OVCAR-8,> 100 µM (inactive)
same,GI50,HT-29,> 100 µM (inactive)
same,GI50,SNB-78,> 100 µM (inactive)
same,GI50,K562,> 100 µM (inactive)
same,GI50,NCI-H226,> 100 µM (inactive)
same,GI50,DMS-273,> 100 µM (inactive)
same,GI50,SF-268,> 100 µM (inactive)
same,GI50,MOLT-4,67 µM (inactive)
same,GI50,SF-295,> 100 µM (inactive)
same,GI50,CAKI-1,72.9 µM (inactive)
same,GI50,HCT-116,> 100 µM (inactive)
same,GI50,TK-10,78.2 µM (inactive)
same,GI50,A498,77.6 µM (inactive)
same,GI50,HOP-62,> 100 µM (inactive)
same,GI50,UO-31,20.3 µM (inactive)
same,GI50,A549,> 100 µM (inactive)
same,GI50,SNB-75,> 100 µM (inactive)
same,GI50,SK-MEL-5,> 100 µM (inactive)
same,GI50,UACC-62,> 100 µM (inactive)
same,GI50,KM-20L2,> 100 µM (inactive)
same,GI50,ACHN,28.4 µM (inactive)
same,GI50,CCRF-CEM,42.7 µM (inactive)
same,GI50,UACC-257,> 100 µM (inactive)
same,GI50,NCI-H460,39.2 µM (inactive)
same,GI50,SW-620,73.6 µM (inactive)
same,GI50,OVCAR-3,> 100 µM (inactive)
same,GI50,SF-539,> 100 µM (inactive)
same,GI50,SK-OV-3,> 100 µM (inactive)
same,GI50,U-251,> 100 µM (inactive)
same,GI50,COLO 205,> 100 µM (inactive)
same,GI50,DLD-1,> 100 µM (inactive)
same,GI50,HCT-15,> 100 µM
same,GI50,M14,> 100 µM (inactive)
same,GI50,NCI-H23,> 100 µM (inactive)
same,GI50,EKVX,73.5 µM (inactive)
same,GI50,DMS-114,> 100 µM (inactive)
same,GI50,LXFL 529,> 100 µM (inactive)
same,GI50,SN12C,> 100 µM (inactive)
same,GI50,OVCAR-4,> 100 µM (inactive)
same,GI50,HOP-18,> 100 µM (inactive)
same,GI50,786-0,> 100 µM (inactive)
same,GI50,SNB-19,> 100 µM (inactive)
same,GI50,M19-MEL,> 100 µM (inactive)
same,GI50,KM12,> 100 µM (inactive)
same,GI50,Malme-3M,> 100 µM (inactive)
same,GI50,RXF 393,> 100 µM (inactive)
same,GI50,HCC 2998,86.1 µM (inactive)
same,GI50,HL-60,18.2 µM (inactive)
same,GI50,IGROV-1,> 100 µM (inactive)
C=CCn1cc(C(=O)NC(=O)NCCCCCOC(=O)CCCCCCCCCCC(=O)OCCCCCNC(=O)NC(=O)c2cn(CC=C)c(=O)n(C)c2=O)c(=O)n(C)c1=O,GI50,OVCAR-5,> 100 µM (inactive)
same,GI50,RPMI-8226,> 100 µM (inactive)
same,GI50,SK-MEL-2,> 100 µM (inactive)
same,GI50,XF498,> 100 µM (inactive)
same,GI50,OVCAR-8,> 100 µM (inactive)
same,GI50,HT-29,> 100 µM (inactive)
same,GI50,SNB-78,> 100 µM (inactive)
same,GI50,K562,> 100 µM (inactive)
same,GI50,NCI-H226,> 100 µM (inactive)
same,GI50,NCI-H522,> 100 µM (inactive)
same,GI50,DMS-273,> 100 µM (inactive)
same,GI50,SF-268,> 100 µM (inactive)
same,GI50,MOLT-4,> 100 µM (inactive)
same,GI50,CAKI-1,> 100 µM (inactive)
same,GI50,HCT-116,> 100 µM (inactive)
same,GI50,TK-10,> 100 µM (inactive)
same,GI50,A498,> 100 µM (inactive)
same,GI50,HOP-62,> 100 µM (inactive)
same,GI50,UO-31,> 100 µM (inactive)
same,GI50,A549,> 100 µM (inactive)
same,GI50,SNB-75,> 100 µM (inactive)
same,GI50,SK-MEL-5,> 100 µM (inactive)
same,GI50,UACC-62,> 100 µM (inactive)
same,GI50,KM-20L2,> 100 µM (inactive)
same,GI50,ACHN,> 100 µM (inactive)
same,GI50,CCRF-CEM,> 100 µM (inactive)
same,GI50,UACC-257,> 100 µM (inactive)
same,GI50,NCI-H460,> 100 µM (inactive)
same,GI50,SW-620,> 100 µM (inactive)
same,GI50,OVCAR-3,> 100 µM (inactive)
same,GI50,HOP-92,> 100 µM (inactive)
same,GI50,SF-539,> 100 µM (inactive)
same,GI50,SK-OV-3,> 100 µM (inactive)
same,GI50,U-251,> 100 µM (inactive)
same,GI50,COLO 205,> 100 µM (inactive)
same,GI50,DLD-1,> 100 µM (inactive)
same,GI50,HCT-15,> 100 µM
same,GI50,M14,> 100 µM (inactive)
same,GI50,NCI-H23,> 100 µM (inactive)
same,GI50,EKVX,> 100 µM (inactive)
same,GI50,DMS-114,> 100 µM (inactive)
same,GI50,LXFL 529,> 100 µM (inactive)
same,GI50,SN12C,> 100 µM (inactive)
same,GI50,HOP-18,71.8 µM (inactive)
same,GI50,786-0,> 100 µM (inactive)
same,GI50,SNB-19,> 100 µM (inactive)
same,GI50,M19-MEL,> 100 µM (inactive)
same,GI50,KM12,> 100 µM (inactive)
same,GI50,LOX IMVI,> 100 µM (inactive)
same,GI50,Malme-3M,> 100 µM (inactive)
same,GI50,SK-MEL-28,> 100 µM (inactive)
same,GI50,RXF 393,> 100 µM (inactive)
same,GI50,HCC 2998,> 100 µM (inactive)
same,GI50,HL-60,> 100 µM (inactive)
same,GI50,IGROV-1,> 100 µM (inactive)
